According to patent US20240207263A1, “SELECTIVE MODULATORS OF ATAXIA TELA[…] (ATM) KINASE AND USES THEREOF” (priority 2021, published 2024):

Key:
[1] = target: ATM (Homo sapiens (Human), UniProt Q13315); experiment: biochemical; assay type: biochemical; details: read-out: ATM IC50
Text: Assay a): ATM Biochemical Potency
Data was collected by Caliper.

[2] = system: phosp-KAP1 in MCF-7 cells; experiment: phosp-KAP1 MCF-7 cellular potency assay (Assay f); assay type: cell-based; details: Homo sapiens, MCF7; MCF-7 cells, etoposide; read-out: Etoposide MCF-7 cellular IC50
Experimental: Assay f): phosp-KAP1 MCF-7 Cellular Potency
MCF-7 cells were seeded to a 384-well cell-culture plate, 25 μl/well which were incubated at 37° C. and 5% CO2 for 24 hr. Test compounds were added to the 384-well plates. Etoposide at final concentration of 100 μM was then added to each well except Vehicle control wells, which were incubated at 37° C. and 5% CO2 for 1 hour. After medium removal, cells were fixed by the addition of 25 μl/well of 8% paraformaldehyde in PBSA and incubated for 20 minutes at room temperature. After the plates were rinsed 3 times with PBSA, 50 ul permeabilization buffer (0.1% Triton X-100 in PBS) was added and the plates were incubated for 20 minutes at room temperature. After the plates were rinsed with PBSA, block the cells by adding 50 μl of Odyssey Blocking Buffer in 384-well plate and then incubate for 1.5 hours at room temperature. Remove blocking buffer by Plate washer (BioTek ELx405 select CW). […] The plates were rinsed 5 times with PBST (0.1% Tween-20 in PBS).
• 1) Fluorescence intensity (FI) was detected for each well. • 2) % inhibition is calculated as follow:
[formula] • FIpositive: The average FI for the positive controls across the plate. • FIvehicle: The average FI for negative controls across the plate. • 3) Calculate IC50 and Plot effect-dose curve of compounds: • Calculate IC50 by fitting % inhibition values and log of compound concentrations to nonlinear regression (dose response−variable slope) with Graphpad prism 6.0.
Y=Bottom+(Top−Bottom)/(1+10^((Log IC50−X)*HillSlope)) • X: log of compounds concentration; Y: % inhibition

Chain of ATM (Q13315 whole entry, looked up): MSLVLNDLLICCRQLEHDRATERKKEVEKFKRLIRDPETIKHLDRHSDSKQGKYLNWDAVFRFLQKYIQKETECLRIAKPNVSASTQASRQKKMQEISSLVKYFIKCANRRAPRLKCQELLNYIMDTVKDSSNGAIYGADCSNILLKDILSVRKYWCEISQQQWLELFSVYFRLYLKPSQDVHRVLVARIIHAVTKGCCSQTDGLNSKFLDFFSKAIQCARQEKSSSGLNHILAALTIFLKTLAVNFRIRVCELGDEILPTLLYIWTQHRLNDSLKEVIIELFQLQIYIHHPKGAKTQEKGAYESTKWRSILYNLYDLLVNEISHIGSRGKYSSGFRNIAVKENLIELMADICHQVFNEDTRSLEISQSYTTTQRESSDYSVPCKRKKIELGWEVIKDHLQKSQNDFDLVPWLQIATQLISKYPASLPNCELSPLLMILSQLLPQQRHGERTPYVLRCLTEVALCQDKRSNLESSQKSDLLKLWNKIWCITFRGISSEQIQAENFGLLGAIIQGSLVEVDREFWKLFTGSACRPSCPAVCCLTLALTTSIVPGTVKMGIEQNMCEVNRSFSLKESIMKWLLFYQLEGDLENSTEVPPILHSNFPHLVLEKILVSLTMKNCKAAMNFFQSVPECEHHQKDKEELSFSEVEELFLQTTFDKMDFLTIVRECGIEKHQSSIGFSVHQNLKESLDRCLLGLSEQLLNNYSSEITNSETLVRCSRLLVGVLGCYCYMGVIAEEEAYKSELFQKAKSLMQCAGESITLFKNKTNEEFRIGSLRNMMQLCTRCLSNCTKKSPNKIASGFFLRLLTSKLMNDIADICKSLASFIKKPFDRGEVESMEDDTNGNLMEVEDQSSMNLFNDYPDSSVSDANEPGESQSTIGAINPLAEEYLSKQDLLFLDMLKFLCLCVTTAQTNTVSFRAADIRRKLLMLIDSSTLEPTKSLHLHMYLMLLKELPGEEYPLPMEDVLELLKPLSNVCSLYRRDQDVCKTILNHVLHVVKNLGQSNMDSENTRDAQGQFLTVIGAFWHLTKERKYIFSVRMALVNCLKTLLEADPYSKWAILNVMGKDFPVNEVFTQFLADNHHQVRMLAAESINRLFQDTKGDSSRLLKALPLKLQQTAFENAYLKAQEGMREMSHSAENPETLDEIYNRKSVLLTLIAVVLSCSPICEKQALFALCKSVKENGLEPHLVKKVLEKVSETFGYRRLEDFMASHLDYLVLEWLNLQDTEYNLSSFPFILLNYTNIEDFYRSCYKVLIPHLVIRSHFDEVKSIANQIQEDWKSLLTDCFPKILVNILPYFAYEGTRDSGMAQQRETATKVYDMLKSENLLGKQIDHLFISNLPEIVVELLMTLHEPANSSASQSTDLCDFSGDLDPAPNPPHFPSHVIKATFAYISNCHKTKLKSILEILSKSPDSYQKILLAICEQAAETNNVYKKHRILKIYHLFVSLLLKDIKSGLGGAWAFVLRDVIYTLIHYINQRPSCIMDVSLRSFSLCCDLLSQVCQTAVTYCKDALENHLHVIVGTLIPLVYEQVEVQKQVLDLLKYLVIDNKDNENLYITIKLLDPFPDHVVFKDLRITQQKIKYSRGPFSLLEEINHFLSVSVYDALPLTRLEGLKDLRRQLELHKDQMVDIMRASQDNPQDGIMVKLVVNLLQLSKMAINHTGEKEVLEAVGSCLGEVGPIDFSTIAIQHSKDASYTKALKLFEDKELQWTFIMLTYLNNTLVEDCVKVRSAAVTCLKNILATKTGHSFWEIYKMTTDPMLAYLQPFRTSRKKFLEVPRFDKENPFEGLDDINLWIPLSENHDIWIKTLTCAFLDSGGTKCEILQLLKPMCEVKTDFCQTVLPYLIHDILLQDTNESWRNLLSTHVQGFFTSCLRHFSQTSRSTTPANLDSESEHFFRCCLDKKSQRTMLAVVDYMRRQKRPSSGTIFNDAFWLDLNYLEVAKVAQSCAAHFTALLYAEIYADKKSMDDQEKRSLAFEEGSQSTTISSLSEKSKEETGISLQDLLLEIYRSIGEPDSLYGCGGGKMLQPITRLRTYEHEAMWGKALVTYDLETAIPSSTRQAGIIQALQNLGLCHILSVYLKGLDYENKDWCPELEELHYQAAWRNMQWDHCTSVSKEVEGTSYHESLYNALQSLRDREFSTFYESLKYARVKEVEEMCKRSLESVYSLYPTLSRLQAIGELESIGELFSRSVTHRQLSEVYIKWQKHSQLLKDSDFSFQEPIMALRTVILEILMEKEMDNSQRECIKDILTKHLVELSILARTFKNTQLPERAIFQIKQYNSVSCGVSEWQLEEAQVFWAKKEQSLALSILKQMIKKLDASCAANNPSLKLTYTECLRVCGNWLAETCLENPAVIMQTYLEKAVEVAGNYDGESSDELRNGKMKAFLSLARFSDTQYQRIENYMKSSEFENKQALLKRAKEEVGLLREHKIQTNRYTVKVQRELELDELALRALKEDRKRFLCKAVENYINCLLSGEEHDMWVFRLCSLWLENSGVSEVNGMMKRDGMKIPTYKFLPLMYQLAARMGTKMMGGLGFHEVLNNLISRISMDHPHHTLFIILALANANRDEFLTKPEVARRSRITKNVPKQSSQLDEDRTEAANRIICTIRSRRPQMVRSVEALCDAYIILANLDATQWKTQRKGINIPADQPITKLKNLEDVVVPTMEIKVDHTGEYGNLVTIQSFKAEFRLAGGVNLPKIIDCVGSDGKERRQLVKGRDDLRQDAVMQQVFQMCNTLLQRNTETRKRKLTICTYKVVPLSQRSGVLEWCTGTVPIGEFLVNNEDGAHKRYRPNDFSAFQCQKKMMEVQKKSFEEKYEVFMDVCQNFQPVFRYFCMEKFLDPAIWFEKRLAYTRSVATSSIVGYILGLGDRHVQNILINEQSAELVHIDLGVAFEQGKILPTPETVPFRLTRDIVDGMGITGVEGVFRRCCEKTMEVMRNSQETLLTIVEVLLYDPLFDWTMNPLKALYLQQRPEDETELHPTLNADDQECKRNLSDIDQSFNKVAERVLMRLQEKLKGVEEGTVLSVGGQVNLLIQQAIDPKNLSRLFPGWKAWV

| SMILES | IC50 [1] [nM] | IC50 [2] [nM] |
| --- | --- | --- |
| CO[C@H]1C[C@@H](n2c(=O)n(C)c3nnc4ccc(-c5ccc(COCCN6CCC(F)CC6)nc5)cc4c32)C1 [Example 174, 8-(6-((2-(4-fluoropiperidin-1-yl)ethoxy)methyl)pyridin-3-yl)-1-(cis-3-methoxycyclobutyl)-3-methyl-1H-imidazo[4,5-c]cinnolin-2(3H)-one] | 28 | 26 |
| C[C@@H](OCCN1CCC(C)(C)CC1)c1ccc(-c2ccc3nnc4c(c3c2)n(C2CCOCC2)c(=O)n4C)cn1 [Example 103, (R)-8-(6-(1-(2-(4,4-dimethylpiperidin-1-yl)ethoxy)ethyl)pyridin-3-yl)-3-methyl-1-(tetrahydro-2H-pyran-4-yl)-1H-imidazo[4,5-c]cinnolin-2(3H)-one] | 3.9 | 20 |
| Cn1c(=O)n(C2CCOCC2)c2c3cc(-c4ccc(COCCN5CCC(C)(C)C5)nc4)ccc3nnc21 [Example 97, 8-(6-((2-(3,3-dimethylpyrrolidin-1-yl)ethoxy)methyl)pyridin-3-yl)-3-methyl-1-(tetrahydro-2H-pyran-4-yl)-1H-imidazo[4,5-c]cinnolin-2(3H)-one] | 14 | 43 |
| COC1CCN(CCO[C@H](C)c2ccc(-c3cc4c(cc3F)nnc3c4n(C(C)C)c(=O)n3C)cn2)CC1 [Example 142, (R)-7-fluoro-1-isopropyl-8-(6-(1-(2-(4-methoxypiperidin-1-yl)ethoxy)ethyl)pyridin-3-yl)-3-methyl-1H-imidazo[4,5-c]cinnolin-2(3H)-one] | 4.7 | 24 |
| CO[C@H]1CCN(CCO[C@H](C)c2ccc(-c3ccc4nnc5c(c4c3)n(C(C)C)c(=O)n5C)cn2)C1 [Example 59, 1-isopropyl-8-(6-((R)-1-(2-((S)-3-methoxypyrrolidin-1-yl)ethoxy)ethyl)pyridin-3-yl)-3-methyl-1H-imidazo[4,5-c]cinnolin-2(3H)-one] | 8.3 | 65 |
| CC(C)n1c(=O)n(C)c2nnc3cc(F)c(-c4ccc([C@@H](C)OCCN5CCC(C)(C)C5)nc4)cc3c21 [Example 137, (R)-8-(6-(1-(2-(3,3-dimethylpyrrolidin-1-yl)ethoxy)ethyl)pyridin-3-yl)-7-fluoro-1-isopropyl-3-methyl-1H-imidazo[4,5-c]cinnolin-2(3H)-one] | 6.3 | 22 |
| CC(C)n1c(=O)n(C)c2nnc3ccc(-c4ccc([C@@H](C)OCCN5CCC(OC(F)F)C5)nc4)cc3c21 (stereo partly drawn) [Example 54, 8-(6-((1R)-1-(2-(3-(difluoromethoxy)pyrrolidin-1-yl)ethoxy)ethyl)pyridin-3-yl)-1-isopropyl-3-methyl-1H-imidazo[4,5-c]cinnolin-2(3H)-one] | – | 17 |
| C[C@@H](OCCN1CCC2(CCC2)C1)c1ccc(-c2ccc3nnc4c(c3c2)n(C2CCOCC2)c(=O)n4C)cn1 [Example 118, (R)-8-(6-(1-(2-(6-azaspiro[3.4]octan-6-yl)ethoxy)ethyl)pyridin-3-yl)-3-methyl-1-(tetrahydro-2H-pyran-4-yl)-1H-imidazo[4,5-c]cinnolin-2(3H)-one] | 4.1 | 71 |
| COC1CCN(CCO[C@H](C)c2ccc(-c3ccc4nnc5c(c4c3)n(C3CCOCC3)c(=O)n5C)cn2)CC1 [Example 110, (R)-8-(6-(1-(2-(4-methoxypiperidin-1-yL)ethoxy)ethyl)pyridin-3-yl)-3-methyl-1-(tetrahydro-2H-pyran-4-yl)-1H-imidazo[4,5-c]cinnolin-2(3H)-one] | 6.9 | 13 |
| CC(C)n1c(=O)n(C)c2nnc3cc(F)c(-c4ccc(COCCN5CCC(C)(C)CC5)nc4)cc3c21 [Example 133, 8-(6-((2-(4,4-dimethylpiperidin-1-yl)ethoxy)methyl)pyridin-3-yl)-7-fluoro-1-isopropyl-3-methyl-1H-imidazo[4,5-c]cinnolin-2(3H)-one] | 13 | 44 |
| CC(C)n1c(=O)n(C)c2nnc3cc(F)c(-c4ccc([C@@H](C)OCCN5CCC6(CC5)CC6)nc4)cc3c21 [Example 140, (R)-8-(6-(1-(2-(6-azaspiro[2.5]octan-6-yl)ethoxy)ethyl)pyridin-3-yl)-7-fluoro-1-isopropyl-3-methyl-1H-imidazo[4,5-c]cinnolin-2(3H)-one] | 2.8 | 14 |
| C[C@@H](OCCN1CCC(C(F)(F)F)CC1)c1ccc(-c2ccc3nnc4c(c3c2)n(C2CCOCC2)c(=O)n4C)cn1 [Example 117, (R)-3-methyl-1-(tetrahydro-2H-pyran-4-yl)-8-(6-(1-(2-(4-(trifluoromethyl)piperidin-1-yl)ethoxy)ethyl)pyridin-3-yl)-1H-imidazo[4,5-c]cinnolin-2(3H)-one] | 3.7 | 65 |
| CC(C)n1c(=O)n(C)c2nnc3cc(F)c(-c4ccc([C@@H](C)OCCN5CCC(OC(F)(F)F)CC5)nc4)cc3c21 [Example 144, (R)-7-fluoro-1-isopropyl-3-methyl-8-(6-(1-(2-(4-(trifluoromethoxy)piperidin-1-yl)ethoxy)ethyl)pyridin-3-yl)-1H-imidazo[4,5-c]cinnolin-2(3H)-one] | 2.9 | 47 |
| CO[C@H]1CCN(CCO[C@H](C)c2ccc(-c3ccc4nnc5c(c4c3)n(C3CCOCC3)c(=O)n5C)cn2)C1 [Example 105, 8-(6-((R)-1-(2-((S)-3-methoxypyrrolidin-1-yl)ethoxy)ethyl)pyridin-3-yl)-3-methyl-1-(tetrahydro-2H-pyran-4-yl)-1H-imidazo[4,5-c]cinnolin-2(3H)-one] | – | 36 |
| C[C@@H](OCCN1CCC(C)(C)C1)c1ccc(-c2cc3c(cc2F)nnc2c3n(C3CCOCC3)c(=O)n2C)cn1 [Example 153, (R)-8-(6-(1-(2-(3,3-dimethylpyrrolidin-1-yl)ethoxy)ethyl)pyridin-3-yl)-7-fluoro-3-methyl-1-(tetrahydro-2H-pyran-4-yl)-1H-imidazo[4,5-c]cinnolin-2(3H)-one] | 8.5 | 43 |
| CC(C)n1c(=O)n(C)c2nnc3ccc(-c4ccc([C@@H](C)OCCN5CCC6(COC6)C5)nc4)cc3c21 [Example 86, (R)-8-(6-(1-(2-(2-oxa-6-azaspiro[3.4]octan-6-yl)ethoxy)ethyl)pyridin-3-yl)-1-isopropyl-3-methyl-1H-imidazo[4,5-c]cinnolin-2(3H)-one] | 3.6 | 12 |
| CC(C)n1c(=O)n(C)c2nnc3ccc(-c4ccc([C@@H](C)OCCN5CCC6(CC5)CC6)nc4)cc3c21 [Example 55, (R)-8-(6-(1-(2-(6-azaspiro[2.5]octan-6-yl)ethoxy)ethyl)pyridin-3-yl)-1-isopropyl-3-methyl-1H-imidazo[4,5-c]cinnolin-2(3H)-one] | 3.2 | 11 |
| CO[C@H]1C[C@@H](n2c(=O)n(C)c3nnc4ccc(-c5ccc(COCCN(C)C)nc5)cc4c32)C1 [Example 176, 8-(6-((2-(dimethylamino)ethoxy)methyl)pyridin-3-yl)-1-(cis-3-methoxycyclobutyl)-3-methyl-1H-imidazo[4,5-c]cinnolin-2(3H)-one] | 65 | – |
| CC(C)n1c(=O)n(C)c2nnc3ccc(-c4ccc([C@@H](C)OCCN5CCC(C#N)CC5)nc4)cc3c21 [Example 91, (R)-1-(2-(1-(5-(1-isopropyl-3-methyl-2-oxo-2,3-dihydro-1H-imidazo[4,5-c]cinnolin-8-yl)pyridin-2-yl)ethoxy)ethyl)piperidine-4-carbonitrile] | 8.5 | – |
| CC(C)OC1CCN(CCO[C@H](C)c2ccc(-c3ccc4nnc5c(c4c3)n(C(C)C)c(=O)n5C)cn2)CC1 [Example 92, (R)-8-(6-(1-(2-(4-isopropoxypiperidin-1-yl)ethoxy)ethyl)pyridin-3-yl)-1-isopropyl-3-methyl-1H-imidazo[4,5-c]cinnolin-2(3H)-one] | 1.5 | – |
| C[C@@H](OCCN1CCCCC1)c1ccc(-c2ccc3nnc4c(c3c2)n(C2CCOCC2)c(=O)n4C)cn1 [Example 120, (R)-3-methyl-8-(6-(1-(2-(piperidin-1-yl)ethoxy)ethyl)pyridin-3-yl)-1-(tetrahydro-2H-pyran-4-yl)-1H-imidazo[4,5-c]cinnolin-2(3H)-one] | 11 | – |
| CC(C)n1c(=O)n(C)c2nnc3ccc(-c4ccc([C@@H](C)OCCN5CC6(COC6)C5)nc4)cc3c21 [Example 81, (R)-8-(6-(1-(2-(2-oxa-6-azaspiro[3.3]heptan-6-yl)ethoxy)ethyl)pyridin-3-yl)-1-isopropyl-3-methyl-1H-imidazo[4,5-c]cinnolin-2(3H)-one] | 3 | – |
